Test results from PubChem BioAssay AID1259407 (Chemical Carcinogenesis Research Information System (CCRIS), 2018).
Activity calls are given as the source filed them. How the calls were made is not given here.

Test system: CCRIS mutagenicity, Ames/micronucleus/aberration tests
Assay: CCRIS mutagenicity studies
[1] = Test System: AMES SALMONELLA TYPHIMURIUM, Strain/Indicator: TA100, Metabolic Activation: NONE, Method: STANDARD PLATE
[2] = Test System: AMES SALMONELLA TYPHIMURIUM, Strain/Indicator: TA1535, Metabolic Activation: NONE, Method: STANDARD PLATE
[3] = Test System: AMES SALMONELLA TYPHIMURIUM, Strain/Indicator: TA100, Metabolic Activation: NONE, Method: PREINCUBATION
[4] = Test System: AMES SALMONELLA TYPHIMURIUM, Strain/Indicator: TA100, Metabolic Activation: RAT, LIVER, S-9, AROCLOR 1254, Method: PREINCUBATION
[5] = Test System: AMES SALMONELLA TYPHIMURIUM, Strain/Indicator: TA100, Metabolic Activation: RAT, LIVER, S-9, AROCLOR 1254, Method: STANDARD PLATE

Measured: mutagenic call

C1O[C@@H]1[C@H]1CO1
inactive: End Point: IN VIVO MICRONUCLEUS, Test System: PERIPHERAL BLOOD RETICULOCYTES, Species: MOUSE, Strain/Sex: BALB/C/MALE, Route: IP INJECTION, ONCE inactive; positive (d 1 -2); positive at both dose levels on d 2 (negative by d 3)
active: End Point: IN VITRO CHROMOSOMAL ABERRATIONS, Test System: HUMAN PERIPHERAL LYMPHOCYTES, Metabolic Activation: NONE, Method: FISH (CHROMOSOME PAINTING) active; positive (structural changes) | End Point: IN VIVO MICRONUCLEUS, Test System: SPERMATID, Species: RAT, Strain/Sex: SPRAGUE-DAWLEY/MALE, Route: IP INJECTION active; positive | End Point: IN VIVO MICRONUCLEUS, Test System: SPERMATIDS, Species: MOUSE, Strain/Sex: (102XC3H)F1/MALE, Route: IP INJECTION active; positive (at 30 mg at 3 d after exposure) | End Point: IN VIVO MICRONUCLEUS, Test System: SPERMATIDS, Species: MOUSE, Strain/Sex: BALB/C/MALE, Route: IP INJECTION active; positive | End Point: IN VIVO MICRONUCLEUS, Test System: SPERMATIDS, Species: RAT, Strain/Sex: LEWIS/MALE, Route: IP INJECTION active; positive | End Point: IN VIVO MICRONUCLEUS, Test System: SPLENOCYTES, Species: MOUSE, Strain/Sex: (102XC3H)F1/MALE, Route: IP INJECTION active; positive | End Point: IN VIVO MICRONUCLEUS, Test System: SPLENOCYTES, Species: RAT, Strain/Sex: LEWIS/MALE, Route: IP INJECTION active; positive | [1] active; positive | [2] active; positive | Test System: CHINESE HAMSTER OVARY, Strain/Indicator: AS52/6-THIOGUANINE, Metabolic Activation: NONE active; positive | Test System: MOUSE LYMPHOMA, Strain/Indicator: L5178Y (TK+/TK-), Metabolic Activation: NONE, Method: SUSPENSION/PLATE active; positive | Test System: MOUSE LYMPHOMA, Strain/Indicator: L5178Y (TK+/TK-), Metabolic Activation: RAT, LIVER, S-9, AROCLOR 1254, Method: SUSPENSION/PLATE active; positive | Test System: MOUSE LYMPHOMA, Strain/Indicator: L5178Y (TK+/TK-), Metabolic Activation: RAT, LIVER, S-9, Method: SUSPENSION/PLATE active; positive | Test System: UDS MOUSE SPERM CELLS, Strain/Indicator: THY INCORP, Metabolic Activation: IN VIVO, Method: LIQUID SCINTILLATION COUNTING active; positive

C=CC(=O)OCCCCCC
inactive: Test System: AMES SALMONELLA TYPHIMURIUM, Strain/Indicator: TA98, Metabolic Activation: NONE, Method: STANDARD PLATE inactive; negative | Test System: AMES SALMONELLA TYPHIMURIUM, Strain/Indicator: TA98, Metabolic Activation: RAT, LIVER, S-9, AROCLOR 1254, Method: STANDARD PLATE inactive; negative | Test System: AMES SALMONELLA TYPHIMURIUM, Strain/Indicator: TA98, Metabolic Activation: RAT, LIVER, S-9, SODIUM PHENOBARBITAL, Method: STANDARD PLATE inactive; negative | [3] inactive; negative | [1] inactive; negative | [4] inactive; negative | [5] inactive; negative | Test System: AMES SALMONELLA TYPHIMURIUM, Strain/Indicator: TA100, Metabolic Activation: RAT, LIVER, S-9, SODIUM PHENOBARBITAL, Method: STANDARD PLATE inactive; negative | [2] inactive; negative | Test System: AMES SALMONELLA TYPHIMURIUM, Strain/Indicator: TA1535, Metabolic Activation: RAT, LIVER, S-9, AROCLOR 1254, Method: STANDARD PLATE inactive; negative | Test System: AMES SALMONELLA TYPHIMURIUM, Strain/Indicator: TA1535, Metabolic Activation: RAT, LIVER, S-9, SODIUM PHENOBARBITAL, Method: STANDARD PLATE inactive; negative | Test System: AMES SALMONELLA TYPHIMURIUM, Strain/Indicator: TA1537, Metabolic Activation: NONE, Method: STANDARD PLATE inactive; negative | Test System: AMES SALMONELLA TYPHIMURIUM, Strain/Indicator: TA1537, Metabolic Activation: RAT, LIVER, S-9, AROCLOR 1254, Method: STANDARD PLATE inactive; negative | Test System: AMES SALMONELLA TYPHIMURIUM, Strain/Indicator: TA1537, Metabolic Activation: RAT, LIVER, S-9, SODIUM PHENOBARBITAL, Method: STANDARD PLATE inactive; negative | Test System: AMES SALMONELLA TYPHIMURIUM, Strain/Indicator: TA1538, Metabolic Activation: NONE, Method: STANDARD PLATE inactive; negative | Test System: AMES SALMONELLA TYPHIMURIUM, Strain/Indicator: TA1538, Metabolic Activation: RAT, LIVER, S-9, AROCLOR 1254, Method: STANDARD PLATE inactive; negative | Test System: AMES SALMONELLA TYPHIMURIUM, Strain/Indicator: TA1538, Metabolic Activation: RAT, LIVER, S-9, SODIUM PHENOBARBITAL, Method: STANDARD PLATE inactive; negative

CC(C)(C)Br
active: Test System: AMES SALMONELLA TYPHIMURIUM, Strain/Indicator: TA100, Metabolic Activation: NONE, Method: DESICCATOR active; positive | Test System: AMES SALMONELLA TYPHIMURIUM, Strain/Indicator: TA100, Metabolic Activation: RAT, LIVER, S-9, AROCLOR 1254, Method: DESICCATOR active; positive

C=CCn1cc2c3c(cccc31)[C@H]1C=C(CO)CN(C)[C@@H]1C2
active: [5] active; positive

CC(Cl)CCCC(Cl)CCCC(Cl)CCCC(Cl)CCCC(Cl)CCCC(Cl)CCCl (centres undefined)
active: End Point: IN VITRO CHROMOSOMAL ABERRATIONS, Test System: CHO CELLS, Metabolic Activation: NONE active; positive; oily droplets formed at all doses
inactive: End Point: IN VITRO CHROMOSOMAL ABERRATIONS, Test System: CHO CELLS, Metabolic Activation: RAT, LIVER, S-9, AROCLOR 1254 inactive; negative; oily droplets formed at all doses | Test System: AMES SALMONELLA TYPHIMURIUM, Strain/Indicator: TA98, Metabolic Activation: HAMSTER, LIVER, S-9, AROCLOR 1254, Method: PREINCUBATION inactive; negative | Test System: AMES SALMONELLA TYPHIMURIUM, Strain/Indicator: TA98, Metabolic Activation: NONE, Method: PREINCUBATION inactive; negative | Test System: AMES SALMONELLA TYPHIMURIUM, Strain/Indicator: TA98, Metabolic Activation: RAT, LIVER, S-9, AROCLOR 1254, Method: PREINCUBATION inactive; negative | Test System: AMES SALMONELLA TYPHIMURIUM, Strain/Indicator: TA100, Metabolic Activation: HAMSTER, LIVER, S-9, AROCLOR 1254, Method: PREINCUBATION inactive; negative | [3] inactive; negative | [4] inactive; negative | Test System: AMES SALMONELLA TYPHIMURIUM, Strain/Indicator: TA1535, Metabolic Activation: HAMSTER, LIVER, S-9, AROCLOR 1254, Method: PREINCUBATION inactive; negative | Test System: AMES SALMONELLA TYPHIMURIUM, Strain/Indicator: TA1535, Metabolic Activation: NONE, Method: PREINCUBATION inactive; negative | Test System: AMES SALMONELLA TYPHIMURIUM, Strain/Indicator: TA1535, Metabolic Activation: RAT, LIVER, S-9, AROCLOR 1254, Method: PREINCUBATION inactive; negative | Test System: AMES SALMONELLA TYPHIMURIUM, Strain/Indicator: TA1537, Metabolic Activation: HAMSTER, LIVER, S-9, AROCLOR 1254, Method: PREINCUBATION inactive; negative | Test System: AMES SALMONELLA TYPHIMURIUM, Strain/Indicator: TA1537, Metabolic Activation: NONE, Method: PREINCUBATION inactive; negative | Test System: AMES SALMONELLA TYPHIMURIUM, Strain/Indicator: TA1537, Metabolic Activation: RAT, LIVER, S-9, AROCLOR 1254, Method: PREINCUBATION inactive; negative
